The conditions of data set [1]: humans; cited from earlier work.
For data set [2], the target named is T1, organic anion transporter-3 (OAT3) (Homo sapiens, UniProt Q8TCC7).
T1 sequence (Q8TCC7 1-542): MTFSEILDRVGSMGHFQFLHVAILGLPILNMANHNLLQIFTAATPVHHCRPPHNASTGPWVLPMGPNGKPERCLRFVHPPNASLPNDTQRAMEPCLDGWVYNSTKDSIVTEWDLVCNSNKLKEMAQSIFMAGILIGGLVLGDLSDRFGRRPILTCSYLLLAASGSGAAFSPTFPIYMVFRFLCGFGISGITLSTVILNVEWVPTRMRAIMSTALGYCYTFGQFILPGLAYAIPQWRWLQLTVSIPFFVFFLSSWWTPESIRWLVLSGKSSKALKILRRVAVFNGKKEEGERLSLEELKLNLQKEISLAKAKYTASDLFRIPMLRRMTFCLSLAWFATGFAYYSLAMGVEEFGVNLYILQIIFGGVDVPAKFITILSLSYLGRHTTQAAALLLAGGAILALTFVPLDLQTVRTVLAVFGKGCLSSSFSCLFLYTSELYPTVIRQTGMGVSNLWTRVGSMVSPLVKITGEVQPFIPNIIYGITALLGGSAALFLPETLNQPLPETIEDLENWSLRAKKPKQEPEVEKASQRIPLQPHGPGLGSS
Briefly: Uptake in HEK-293 cells transfected with OAT3 vs empty vector. Conditions: HEK-293/OAT3, 5 minutes incubation, 0.5 μg/mL.

Data set [3] deals with T2, organic cation transporter-2 (OCT2) (Homo sapiens, UniProt O15244).
T2 sequence (O15244 1-555): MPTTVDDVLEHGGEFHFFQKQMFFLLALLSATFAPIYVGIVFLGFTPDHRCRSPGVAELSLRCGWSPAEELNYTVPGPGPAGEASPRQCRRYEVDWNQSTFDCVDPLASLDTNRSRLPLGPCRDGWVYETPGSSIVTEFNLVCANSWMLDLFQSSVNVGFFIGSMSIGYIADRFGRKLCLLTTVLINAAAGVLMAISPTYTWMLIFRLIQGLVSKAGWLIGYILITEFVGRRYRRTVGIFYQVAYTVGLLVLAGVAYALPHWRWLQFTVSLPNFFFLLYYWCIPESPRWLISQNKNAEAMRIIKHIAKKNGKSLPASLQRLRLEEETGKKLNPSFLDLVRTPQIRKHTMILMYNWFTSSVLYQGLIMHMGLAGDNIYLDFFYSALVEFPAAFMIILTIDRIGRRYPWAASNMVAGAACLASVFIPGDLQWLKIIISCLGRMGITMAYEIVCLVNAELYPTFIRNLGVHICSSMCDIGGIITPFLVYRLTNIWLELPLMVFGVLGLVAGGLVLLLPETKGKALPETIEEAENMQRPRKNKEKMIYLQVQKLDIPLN
Briefly: Uptake in HEK-293 cells transfected with OCT2 vs empty vector. Conditions: HEK-293/OCT2, 5 minutes incubation, 0.5 μg/mL.

The next data set has as its target T3, human BCRP (Homo sapiens, UniProt Q9UNQ0).
T3 sequence (Q9UNQ0 1-655): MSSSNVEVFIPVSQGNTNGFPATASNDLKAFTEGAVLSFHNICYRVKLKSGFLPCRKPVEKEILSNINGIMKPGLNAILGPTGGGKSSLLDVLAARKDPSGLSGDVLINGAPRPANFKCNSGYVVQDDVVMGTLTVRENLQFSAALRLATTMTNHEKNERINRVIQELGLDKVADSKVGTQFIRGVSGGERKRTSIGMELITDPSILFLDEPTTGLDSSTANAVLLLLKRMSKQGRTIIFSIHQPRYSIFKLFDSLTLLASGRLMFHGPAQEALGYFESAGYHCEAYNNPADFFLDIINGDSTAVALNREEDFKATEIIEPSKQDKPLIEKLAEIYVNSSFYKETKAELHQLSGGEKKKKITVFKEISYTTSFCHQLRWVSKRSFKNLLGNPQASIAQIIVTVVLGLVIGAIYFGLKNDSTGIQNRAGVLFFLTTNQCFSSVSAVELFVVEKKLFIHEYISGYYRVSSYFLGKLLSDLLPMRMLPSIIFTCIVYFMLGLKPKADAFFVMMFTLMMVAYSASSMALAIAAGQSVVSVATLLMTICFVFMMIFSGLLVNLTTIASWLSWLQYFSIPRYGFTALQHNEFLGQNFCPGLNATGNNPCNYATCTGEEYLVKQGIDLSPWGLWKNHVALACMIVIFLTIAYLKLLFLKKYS
In words: Intracellular accumulation in Saos2-BCRP cells vs Saos2-pcDNA3.1. Conditions: for Effect of elacridar on intracellular accumulation: Saos2-BCRP cells, pre-incubation 30 minutes with elacridar (4 μM); for Intracellular accumulation vs control cells: Saos2-BCRP vs Saos2-pcDNA3.1, 0.5 μg/mL, 37°C.

“Also recorded” adds a separate entry of the source. Where two headings read alike, the source gives them in different places.

As to `C#Cc1cccc(Nc2ncnc3cc(OCCOC)c(OCCO)cc23)c1` [OSI-420], under “mouse, plasma”, the “Differences in unbound fraction between strains” value was “No significant differences” and the “Unbound fraction (fu)” value is on record as 6.6 % ± 0.7%. Further, the “Systemic exposure relative to that of erlotinib” value in data set [1] was 10-20%. In addition, the “Uptake vs empty vector HEK-293 cells” value in data set [2] is on record as “significantly higher”. Further, in data set [3], the “Uptake vs empty vector HEK-293 cells” value is listed as “significantly increased”. On human BCRP, the “Effect of elacridar on intracellular accumulation” value is on record as “significantly increased” and the “Intracellular accumulation vs control cells” value is given as “significantly lower; also recorded: significantly reduced”.

For `C#Cc1cccc(Nc2ncnc3cc(OCCOC)c(OCCOC)cc23)c1` [erlotinib, Erlotinib], the “Differences in unbound fraction between strains” value (plasma from each mouse strain, equilibrium dialysis) is given as “No significant differences”. In data set [1], the “Renal clearance component as share of overall elimination” value is given as ~ 10%. The “Uptake vs empty vector HEK-293 cells” value is “significantly higher” in data set [2], “higher” in data set [2] (listed as Erlotinib), “significantly increased” in data set [3] and “higher” in data set [3] (listed as Erlotinib). In addition, on human BCRP, the “Effect of elacridar on intracellular accumulation” value is listed as “significantly increased”. In addition, at human BCRP, the “Intracellular accumulation vs control cells” value is “significantly lower; also recorded: significantly reduced”.

(Values after article PMC3017236 (Clinical cancer research : an official journal of the …, 2010).)
